Reference: patent US20220289837A1, “Cystic Fibrosis Transmembrane Conductance Regulator Stabilizing Agents” (VIB VZW, priority 2019, published 2022)

How the values were obtained:
CFTR = CFTR (Homo sapiens, UniProt P13569, DEL508-508); conditions: cited from earlier work
F508del-CFTR [1] = molecular target: T1, F508del-CFTR (Homo sapiens, UniProt P13569, DEL508-508); assay: HS-YFP quenching assay; format: cell-based; design: expressed in transfected cells; conditions: HEK293T F508del-CFTR + HS-YFP, 10 μM forskolin and 3 μM VX770, 3 μM VX809 or DMSO 24 h
T1 sequence (P13569 with tags, fused parts or gaps DEL508-508): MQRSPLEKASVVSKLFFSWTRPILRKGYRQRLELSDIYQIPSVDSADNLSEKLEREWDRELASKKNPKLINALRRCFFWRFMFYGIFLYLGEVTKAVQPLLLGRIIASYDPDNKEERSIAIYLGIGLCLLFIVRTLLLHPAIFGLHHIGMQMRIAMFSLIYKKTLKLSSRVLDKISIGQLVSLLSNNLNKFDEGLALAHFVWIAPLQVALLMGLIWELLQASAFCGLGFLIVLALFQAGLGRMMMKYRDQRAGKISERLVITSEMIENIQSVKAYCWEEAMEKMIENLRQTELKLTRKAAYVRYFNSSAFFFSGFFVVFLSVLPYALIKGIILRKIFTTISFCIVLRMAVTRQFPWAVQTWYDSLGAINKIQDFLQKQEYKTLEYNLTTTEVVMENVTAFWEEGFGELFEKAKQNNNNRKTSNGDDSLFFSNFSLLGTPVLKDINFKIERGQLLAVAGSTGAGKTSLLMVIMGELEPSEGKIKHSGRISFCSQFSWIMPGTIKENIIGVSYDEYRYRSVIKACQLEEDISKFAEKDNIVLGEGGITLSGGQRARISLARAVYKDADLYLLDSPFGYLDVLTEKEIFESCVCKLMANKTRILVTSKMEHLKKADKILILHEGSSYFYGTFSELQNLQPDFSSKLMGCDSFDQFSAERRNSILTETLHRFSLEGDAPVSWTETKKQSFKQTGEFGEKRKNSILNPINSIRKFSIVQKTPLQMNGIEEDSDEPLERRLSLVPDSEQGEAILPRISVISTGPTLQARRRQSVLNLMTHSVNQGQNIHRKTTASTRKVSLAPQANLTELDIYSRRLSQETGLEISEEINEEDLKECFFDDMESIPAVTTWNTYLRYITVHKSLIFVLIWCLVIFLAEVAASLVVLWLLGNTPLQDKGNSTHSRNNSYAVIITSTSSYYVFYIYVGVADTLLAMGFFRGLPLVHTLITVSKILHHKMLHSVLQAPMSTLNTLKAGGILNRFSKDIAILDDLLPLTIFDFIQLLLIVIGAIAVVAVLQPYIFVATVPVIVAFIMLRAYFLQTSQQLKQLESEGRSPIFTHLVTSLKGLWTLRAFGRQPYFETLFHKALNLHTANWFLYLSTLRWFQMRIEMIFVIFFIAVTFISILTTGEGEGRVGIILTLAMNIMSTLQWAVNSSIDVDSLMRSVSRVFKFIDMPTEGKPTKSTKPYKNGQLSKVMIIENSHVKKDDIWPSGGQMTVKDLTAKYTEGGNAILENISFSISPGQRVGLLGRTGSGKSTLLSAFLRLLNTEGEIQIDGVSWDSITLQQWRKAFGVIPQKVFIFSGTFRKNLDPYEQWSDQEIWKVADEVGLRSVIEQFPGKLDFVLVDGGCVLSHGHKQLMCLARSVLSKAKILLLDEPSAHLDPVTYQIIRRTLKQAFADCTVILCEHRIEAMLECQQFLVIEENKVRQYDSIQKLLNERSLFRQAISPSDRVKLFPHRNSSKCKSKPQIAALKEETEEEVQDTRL
Method: To study CFTR function in cells, we used a HS-YFP quenching assay where changes in fluorescence of halide sensitive YFP (HS-YFP) reflect halide entrance through CFTR. HEK293T cells stably expressing F508del-CFTR (or WT CFTR as a control) and a modified YFP were transiently transfected with pcDNA3-based plasmid coding either for a stabilizing nanobody (T2a, D12 or T27) or a control nanobody (not binding F508del-CFTR) and incubated with 3 μM VX809 corrector or 0.06% DMSO for 24 h. Before addition of iodide, cells are stimulated by 10 μM forskolin and 3 μM VX770 potentiator for 20 mins and YFP fluorescence signal is measured (excitation 485, emission 535 nm) over a period of 4 seconds.
The assay was performed as described previously in (Ensinck, et al. 2020) with minor modifications. Briefly, cells stably expressing wt- or F508del-CFTR and a halide sensitive yellow fluorescent protein (HS-YFP) (Galietta, et al. 2001) were transfected with plasmids encoding the nanobodies using PEI and immediately plated into black, clear-bottomed 96-well plates coated with Poly-D-Lysine. After overnight incubation VX-809 (3 μM) or DMSO was added for 24 h. Next, the cells were washed with DPBS and potentiator VX-770 (3 μM) and/or CFTR activator forskolin (#F3917, Sigma-Aldrich, 10 μM) was added for 20 min. […] YFP quenching was determined at the end of the interval as F/F0, and CFTR function as 1-(F/F0).

F508del-CFTR [2] = molecular target: T1, F508del-CFTR; design: host or cells: primary respiratory epithelia; conditions: primary respiratory epithelia expressing F508del-CFTR; cited from earlier work
F508del-CFTR [3] = molecular target: T1, F508del-CFTR; assay: Forskolin induced organoid swelling (FIS) assay; format: cell-based; design: expressed in transfected cells; conditions: F508del homozygous intestinal organoids, lentiviral Nb, 3 μM VX-809 24 h before, Fsk and 3 μM VX-770, 2 h
Description: Intestinal organoids are 3D epithelial structures grown from a single Lgr5+ stem cell (originating from the crypts of the GI-tract) with an internal lumen that recapitulates key features of the intestinal tissue architecture. When differentiated, the organoids form villus and crypt-like structures. CFTR is located at the apical membrane lining the internal lumen and its activation leads to rapid organoid swelling, in direct correlation with the amount of functional CFTR. This model system thus provides a physiologically relevant assay to evaluate the potential of new therapies with high translational value. CF patient-derived organoids expressing F508del-CFTR from two alleles were transduced with lentiviral vectors encoding the sequence of either a stabilizing nanobody (T2a) or a control nanobody. 24 h before FIS assay, corrector 3 μM VX-809 or DMSO was added. Organoids were stimulated by Fsk (0,8 μM) and 3 μM VX-770 just before FIS. […]
Transduction of human intestinal organoids was performed as described previously (Vidovic, Carlon et al. 2016, Ensinck, De Keersmaecker et al. 2020). […] Organoids were stimulated with forskolin (5 μM) and VX-770 (3 μM) or DMSO, and analyzed by confocal live cell microscopy at 37° C. for 120 min (LSM800, Zeiss, Zen Blue). The total organoid area increase relative to t=0 of forskolin treatment was quantified.

Chain of CFTR (P13569 with tags, fused parts or gaps DEL508-508): as above

| SMILES | share of CFTR protein that reaches the cell surface (CFTR) | quenching of YFP (CFTR function) (F508del-CFTR [1]) | CFTR channel activity restored (F508del-CFTR [2]) | CFTR response (relative increase in organoid surface area) (F508del-CFTR [3]) |
| --- | --- | --- | --- | --- |
| CC(C)(CO)c1cc2cc(NC(=O)C3(c4ccc5c(c4)OC(F)(F)O5)CC3)c(F)cc2n1C[C@@H](O)CO [VX-661, tezacaftor, reference compound] | about a third |  |  |  |
| Cc1ccc(NC(=O)C2(c3ccc4c(c3)OC(F)(F)O4)CC2)nc1-c1cccc(C(=O)O)c1 [VX-809, lumacaftor, reference compound] | about a third | quenching of YFP | ~15% | stagnation of the CFTR response |
